Source: PubChem BioAssay (NCI)
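Each compound was tested at five concentrations against cells in 96-well plates for 48 hours. TGI is the concentration that stops growth completely.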

Assays:
Assay in all cases: NCI tumour cell line growth inhibition, 48 h
KM12 colon = test system: KM12 colon
SK-OV-3 ovarian = test system: SK-OV-3 ovarian
HS 578T breast = test system: HS 578T breast
MDA-MB-435 = test system: MDA-MB-435
RPMI-8226 leukemia = test system: RPMI-8226 leukemia
MDA-MB-231 breast = test system: MDA-MB-231 breast
SW-620 colon = test system: SW-620 colon
NCI-H226 lung = test system: NCI-H226 lung
UACC-257 melanoma = test system: UACC-257 melanoma
OVCAR-3 ovarian = test system: OVCAR-3 ovarian
U251 CNS = test system: U251 CNS
A549 NSCLC = test system: A549 NSCLC
HT29 colon = test system: HT29 colon
BT-549 breast = test system: BT-549 breast

Row | Compound | TGI (KM12 colon) | TGI (SK-OV-3 ovarian) | TGI (HS 578T breast) | TGI (MDA-MB-435) | TGI (RPMI-8226 leukemia) | TGI (MDA-MB-231 breast) | TGI (SW-620 colon) | TGI (NCI-H226 lung) | TGI (UACC-257 melanoma) | TGI (OVCAR-3 ovarian) | TGI (U251 CNS) | TGI (A549 NSCLC) | TGI (HT29 colon) | TGI (BT-549 breast)
1 | COC(=O)c1cc(NC(=O)Cc2c[nH]c3ccccc23)cn1C | > 100 µM | > 100 µM | > 100 µM | > 100 µM | 63.9 µM | > 100 µM | > 100 µM | > 100 µM | > 100 µM | > 100 µM | > 100 µM | > 100 µM | > 100 µM | > 100 µM
2 | O=C(/C=C/c1ccccc1)Nc1ccccc1SCCCCl | > 64.6 µM | > 100 µM | > 29.3 µM | 37 µM | > 100 µM | 74.5 µM | > 62.4 µM | > 100 µM | > 100 µM | > 92.1 µM | > 82.8 µM | > 100 µM | > 41.4 µM | > 36 µM
3 | COc1ccccc1C(O)[C@@H]1C[C@@H]2[C@H]3CC[C@@](C)([C@@H]2O1)C3(C)C (some centres undefined) | 41.6 µM | 87.1 µM | 35.3 µM | 34.4 µM | 78.7 µM | 34.4 µM | 37.9 µM |  | 39 µM | 31.3 µM | 32.1 µM | 43.4 µM | 39.1 µM | 42.2 µM
4 | O=C1/C(=C/c2ccccc2[N+](=O)[O-])N=C(c2ccccc2)N1c1nc2ccccc2s1 | 43.5 µM |  | 62.4 µM | 54.1 µM | 61.6 µM | > 100 µM | > 100 µM | > 100 µM | > 100 µM | 51.9 µM | > 100 µM | > 100 µM | > 100 µM | 49.4 µM
5 | COC1CC(OC2C(C)OC(OC3C(C)OC(OC4C(C)OC(O[C@H]5CC[C@@]6(C)C(=CC[C@]7(O)[C@@H]6C[C@@H](OC(C)=O)[C@@]6(C)[C@]7(O)CC[C@@]6(O)C(C)=O)C5)CC4OC)CC3OC)CC2OC)OC(C)C1O (some centres undefined) | > 25 µM | > 25 µM | > 25 µM | > 25 µM | > 25 µM | > 25 µM | > 25 µM | > 25 µM | > 25 µM | > 25 µM | > 25 µM | > 25 µM | > 25 µM | > 25 µM
6 | CSc1ccc(Nc2cc(=O)[nH]c(=O)[nH]2)cc1 |  | > 100 µM | > 100 µM | > 100 µM | > 100 µM | > 100 µM | > 100 µM | > 100 µM | > 100 µM | > 100 µM | > 100 µM | > 100 µM | > 100 µM | > 100 µM
7 | CCOC(=O)/C=C(/C(=O)OCC)n1ccc(=O)n(Cc2cnnn2COCCOC(C)=O)c1=O | > 56.4 µM | > 100 µM | 56.7 µM | 32.5 µM | 51.2 µM | 38.7 µM | 14.2 µM | 57.3 µM | 31.3 µM | 31 µM | 37.8 µM | > 100 µM | 32 µM | 38.2 µM
8 | CCOC(=O)c1nc2cc(C(F)(F)F)ccc2nc1Nc1ccc(C(=O)OC)s1 | > 100 µM | > 100 µM | > 100 µM | > 100 µM | > 100 µM | 94.6 µM | > 100 µM | 87.3 µM | > 100 µM | 48.7 µM | > 100 µM | > 100 µM | > 100 µM | 74.6 µM
